# Results reported in BindingDB's records for patent US20250313563 (The Broad Institute, 2025).
# “And” between values parts separate entries of the source, which are not always exact repeats. Identical values can stand only once.
# Experiments:
# [1] = molecular target: Glycogen synthase kinase-3 alpha (Homo sapiens, UniProt P49840); assay: TR-FRET Assay
# Description: (§1) The assay was performed in a white, 384 well, low volume, flat bottom plate (Grenier). […] The kinase activity was quenched with 2 μL of 250 mM EDTA. A 10 μL volume of 40 nM Strepavidin-d2, 2 nM Tb2+-pSer641 antibody in TR-FRET Detection Buffer (Invitrogen) was then added.
# [2] = molecular target: Glycogen synthase kinase-3 beta (Homo sapiens, UniProt P49841); assay: TR-FRET Assay
# Description: as §1
# Glycogen synthase kinase-3 alpha, sequence (P49840 whole entry): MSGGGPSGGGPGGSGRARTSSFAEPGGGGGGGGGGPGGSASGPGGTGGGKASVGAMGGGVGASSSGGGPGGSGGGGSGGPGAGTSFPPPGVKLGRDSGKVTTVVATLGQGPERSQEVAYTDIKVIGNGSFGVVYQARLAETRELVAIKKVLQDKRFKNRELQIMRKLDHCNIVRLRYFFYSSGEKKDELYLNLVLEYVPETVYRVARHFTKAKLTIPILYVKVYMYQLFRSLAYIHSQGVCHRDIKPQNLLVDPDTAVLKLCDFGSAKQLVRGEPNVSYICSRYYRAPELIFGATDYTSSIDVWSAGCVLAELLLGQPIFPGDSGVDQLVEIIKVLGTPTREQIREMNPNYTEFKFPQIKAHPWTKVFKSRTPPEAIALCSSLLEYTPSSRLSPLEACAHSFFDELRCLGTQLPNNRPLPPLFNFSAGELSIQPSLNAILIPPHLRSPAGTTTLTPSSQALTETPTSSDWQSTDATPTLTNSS
# Glycogen synthase kinase-3 beta, sequence (P49841 whole entry): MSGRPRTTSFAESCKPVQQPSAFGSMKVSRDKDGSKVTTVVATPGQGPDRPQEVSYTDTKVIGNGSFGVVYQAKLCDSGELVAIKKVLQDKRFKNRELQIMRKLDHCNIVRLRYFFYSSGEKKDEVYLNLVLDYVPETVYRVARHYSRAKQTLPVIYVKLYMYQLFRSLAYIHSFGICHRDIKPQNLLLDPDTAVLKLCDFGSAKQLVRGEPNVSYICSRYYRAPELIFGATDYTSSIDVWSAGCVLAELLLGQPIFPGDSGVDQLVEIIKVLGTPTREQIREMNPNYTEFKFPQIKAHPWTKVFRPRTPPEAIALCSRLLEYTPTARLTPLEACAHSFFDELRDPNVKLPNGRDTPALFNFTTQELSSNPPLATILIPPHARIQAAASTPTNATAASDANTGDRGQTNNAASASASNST
IC50 [1],IC50 [2],Compound
< 100 nM,100 to 1000 nM,"CCC1(c2cccc(-c3cnn(CCOC)c3)c2)C2=C(CC(C)(C)CC2=O)NC2N=NC(C)=C21 (centres undefined) [US20250313563, Compound 883996]"
< 100 nM,< 100 nM,"CCC1(c2cccc(-c3ccncc3OC)c2)C2=CN=NC2NC2=C1C(=O)CC(C)(C)C2 (centres undefined) [US20250313563, Compound 932627]"
100 to 1000 nM,100 to 1000 nM,"CC[C@]1(c2cccc(N3CCC3)c2)C2=CN=NC2NC2=C1C(=O)CC(C)(C)C2 (some centres undefined) [US20250313563, Compound 889631]"
< 100 nM,100 to 1000 nM,"CCC1(c2cccc(-c3cc(OC)ncn3)c2)C2=CN=NC2NC2=C1C(=O)CC(C)(C)C2 (centres undefined) [US20250313563, Compound 948093]"
< 100 nM,1000 to 5000 nM,"CCC1(c2cccc(-c3cnn(C)c3)c2)C2=CN=NC2NC2=C1C(=O)NC(C)(C)C2 (centres undefined) [US20250313563, Compound 943912]"
> 5000 nM,> 5000 nM,"CC[C@]1(c2cccc(-c3cc(C)nn3C)c2)C2=CN=NC2NC2=C1C(=O)CC(C)(C)C2 (some centres undefined) [US20250313563, Compound 946000]"
< 100 nM,100 to 1000 nM,"CC[C@@]1(c2cccc(-c3ccnc(C(F)F)c3)c2)C2=CN=NC2NC2=C1C(=O)NC(C)(C)C2 (some centres undefined) [US20250313563, Compound 950561]"
< 100 nM,< 100 nM,"CCC1(c2cccc(-c3cnnn3C)c2)C2=CN=NC2NC2=C1C(=O)CC(C)(C)C2 (centres undefined) [US20250313563, Compound 947398]"
100 to 1000 nM,1000 to 5000 nM,"CC[C@@]1(c2cccc(N(C)c3cncnc3)c2)C2=CN=NC2NC2=C1C(=O)NC(C)(C)C2 (some centres undefined) [US20250313563, Compound 915401]"
100 to 1000 nM,1000 to 5000 nM,"CC[C@@]1(c2cccc(-c3c(C)nnn3C)c2)C2=CN=NC2NC2=C1C(=O)CC(C)(C)C2 (some centres undefined) [US20250313563, Compound 946100]"
1000 to 5000 nM,> 5000 nM,"CC[C@]1(c2cccc(-c3ccncc3C)c2)C2=CN=NC2NC2=C1C(=O)N[C@@]1(CCOC1)C2 (some centres undefined) [US20250313563, Compound 948662]"
1000 to 5000 nM and > 5000 nM,> 5000 nM,"CC[C@@]1(c2cccc(-c3ncnn3C)c2)C2=CN=NC2NC2=C1C(=O)CC(C)(C)C2 (some centres undefined) [US20250313563, Compound 945482]"
< 100 nM,< 100 nM and 100 to 1000 nM,"CC[C@@]1(c2cccc(-c3cnn(C)c3)c2)C2=C(CC(C)(C)NC2=O)NC2N=NC(C(F)(F)F)=C21 (some centres undefined) [US20250313563, Compound 947877]"
1000 to 5000 nM,> 5000 nM,"CC[C@]1(c2cccc(-c3cnnc(C)c3)c2)C2=CN=NC2NC2=C1C(=O)NC(C)(C)C2 (some centres undefined) [US20250313563, Compound 944071]"
1000 to 5000 nM,> 5000 nM,"CC[C@]1(c2cccc(C3=CNN4CC(F)=CC(F)=C34)c2)C2=CN=NC2NC2=C1C(=O)NC(C)(C)C2 (some centres undefined) [US20250313563, Compound 949390]"
100 to 1000 nM,1000 to 5000 nM,"CC[C@]1(c2cccc(-c3ccnc(OC(F)(F)F)c3)c2)C2=CN=NC2NC2=C1C(=O)CC(C)(C)C2 (some centres undefined) [US20250313563, Compound 943988]"
< 100 nM,< 100 nM,"CC[C@@]1(c2cccc(-c3cn(C)nc3C(F)(F)F)c2)C2=CN=NC2NC2=C1C(=O)NC(C)(C)C2 (some centres undefined) [US20250313563, Compound 950563]"
< 100 nM,< 100 nM,"CCC1(c2cccc(-c3ccncc3F)c2)C2=C(CC(C)(C)NC2=O)NC2N=NC(C)=C21 (centres undefined) [US20250313563, Compound 945722]"
> 5000 nM,> 5000 nM,"CC[C@@]1(c2cccc(-c3ccnn3C)c2)C2=CN=NC2NC2=C1C(=O)CC(C)(C)[C@H]2F (some centres undefined) [US20250313563, Compound 957508]"
< 100 nM,< 100 nM,"CCC1(c2cccc(-c3ccncc3S(C)(=O)=O)c2)C2=CN=NC2NC2=C1C(=O)CC(C)(C)C2 (centres undefined) [US20250313563, Compound 947569]"
< 100 nM,< 100 nM,"CCC1(c2cccc(-c3ccncc3F)c2)C2=C(CC(C)(C)NC2=O)NC2N=NC(C(F)F)=C21 (centres undefined) [US20250313563, Compound 950320]"
> 5000 nM,> 5000 nM,"CC[C@]1(c2cccc(N(C)c3cccc(C)n3)c2)C2=CN=NC2NC2=C1C(=O)CC(C)(C)C2 (some centres undefined) [US20250313563, Compound 932644]"
< 100 nM and 100 to 1000 nM,100 to 1000 nM and > 5000 nM,"CC[C@@]1(c2cccc(C(F)F)c2)C2=CN=NC2NC2=C1C(=O)NC(C)(C)C2 (some centres undefined) [US20250313563, Compound 949006]"

# Second part, the compound before the results:
Compound,IC50 [1],IC50 [2]
"CCC1(c2cccc(C(F)(F)F)c2)C2=CN=NC2NC2=C1C(=O)N(C1=CN=NC1)CC2 (centres undefined) [US20250313563, Compound 950479]",< 100 nM,100 to 1000 nM
"CCC1(c2cccc(C3CN(C(C)=O)C3)c2)C2=CN=NC2NC2=C1C(=O)CC(C)(C)C2 (centres undefined) [US20250313563, Compound 948779]",1000 to 5000 nM,> 5000 nM
"CC[C@]1(c2cccc(N(C)c3ncccn3)c2)C2=C(N=NC2)NC2=C1C(=O)C(C)(C)C2 [US20250313563, Compound 952212]",< 100 nM and 100 to 1000 nM,100 to 1000 nM and > 5000 nM
"CC1(C)CC(=O)C2=C(C1)NC1=C(CN=N1)[C@@]21CO[C@@H](C2CC2)C1 [US20250313563, Compound 913442]",100 to 1000 nM,100 to 1000 nM
"CC1(C)CC2=C(C(=O)C1F)[C@]1(CC[C@H](C(F)(F)F)CC1)C1=C(N=NC1)N2 (some centres undefined) [US20250313563, Compound 917133]",< 100 nM,< 100 nM
"CC[C@@]1(c2cccc(Br)c2)C2=C(C[C@@H](C)CC2=O)NC2N=NC(C(F)(F)F)=C21 (some centres undefined) [US20250313563, Compound 828849]",100 to 1000 nM,100 to 1000 nM
"CC1(C)CC(=O)C2=C(C1)NC1=C(CN=N1)C21CCC(F)(F)CC1 [US20250313563, Compound 883972]",< 100 nM,100 to 1000 nM
"CCC1(c2cccc(N(C)c3ccnc(F)c3)c2)C2=CN=NC2NC2=C1C(=O)CC(C)(C)C2 (centres undefined) [US20250313563, Compound 917146]",< 100 nM,< 100 nM
"CC[C@@]1(c2cccc(N(C)c3cc(C)ccn3)c2)C2=CN=NC2NC2=C1C(=O)CC(C)(C)C2 (some centres undefined) [US20250313563, Compound 945609]",< 100 nM,100 to 1000 nM
"CCC1(c2cccc(N3CCCC[C@@H]3C)c2)C2=CN=NC2NC2=C1C(=O)CC(C)(C)C2 (some centres undefined) [US20250313563, Compound 885217]",100 to 1000 nM,100 to 1000 nM
"COc1ccccc1S(=O)(=O)N1CC2(C1)C1=C(N=NC1)NC1=C2C(=O)CC(C)(C)C1 [US20250313563, Compound 913261]",< 100 nM,< 100 nM
"COc1cncc(F)c1-c1cccc([C@@]2(C)C3=C(CC(C)(C)CC3=O)NC3=C2C(CC(C)(C)C)N=N3)c1 (some centres undefined) [US20250313563, Compound 108956]",> 5000 nM,1000 to 5000 nM
"CC[C@]1(c2cccc(-c3cc(C)ncc3C)c2)C2=C(CC(C)(C)CC2=O)NC2N=NC(C)=C21 (some centres undefined) [US20250313563, Compound 913050]",< 100 nM,< 100 nM and 100 to 1000 nM
"O=C1CC2(CCCC2)CC2=C1C1(CCOCC1)C1=C(N=NC1)N2 [US20250313563, Compound 893308]",< 100 nM,100 to 1000 nM
"Cc1cnccc1[C@H]1CC[C@]2(CC1)C1=C(N=NC1)NC1=C2C(=O)CC(C)(C)C1 [US20250313563, Compound 949318]",100 to 1000 nM,100 to 1000 nM
"CC[C@H]1C[C@]2(CO1)C1=C(N=NC1)NC1=C2C(=O)CC(C)(C)C1 [US20250313563, Compound 913214]",100 to 1000 nM,1000 to 5000 nM
"CCC1(c2cccc(-c3c(C)nnn3C)c2)C2=C(N=NC2)NC2=C1C(=O)C(C)(C)C2 (centres undefined) [US20250313563, Compound 950815]",100 to 1000 nM,1000 to 5000 nM
"COc1ccc(S(=O)(=O)N2CCC3(CC2)C2=C(N=NC2)NC2=C3C(=O)CC(C)(C)C2)cc1F [US20250313563, Compound 947478]",< 100 nM,< 100 nM
"CCC1(c2cccc(Cl)c2)C2=C(CC(C)(C)CC2=O)NC2N=NC(Br)=C21 (centres undefined) [US20250313563, Compound 789564]",< 100 nM,< 100 nM
"Cn1nc(C(F)(F)F)cc1S(=O)(=O)N1CCC2(CC1)C1=C(N=NC1)NC1=C2C(=O)CC(C)(C)C1 [US20250313563, Compound 947606]",< 100 nM,< 100 nM
"CC[C@]1(c2cccc(-c3ccnc(C)c3)c2)C2=C(N=NC2)NC2=C1C(=O)[C@H]1CC[C@@H]2C1 [US20250313563, Compound 943917]",< 100 nM,100 to 1000 nM
"CCC1(c2cccc(N3CCOCC3)c2)C2=C(CC(C)(C)NC2=O)NC2N=NC(C)=C21 (centres undefined) [US20250313563, Compound 947564]",100 to 1000 nM,100 to 1000 nM
"CC[C@]1(c2ccccc2)C2=CN=NC2NC2=C1C(=O)CC1(CC1)C2 (some centres undefined) [US20250313563, Compound 790615]",< 100 nM,100 to 1000 nM
"CCC1(c2cccc(-c3ccnc4c3CCC4)c2)C2=C(CC(C)(C)NC2=O)NC2N=NC(C(F)(F)F)=C21 (centres undefined) [US20250313563, Compound 947862]",< 100 nM,< 100 nM and 100 to 1000 nM
"CC[C@@]1(c2cccc(-c3ccncc3)c2)C2=C(CC(C)(C)CC2=O)NC2N=NC(C(F)(F)F)=C21 (some centres undefined) [US20250313563, Compound 917292]",100 to 1000 nM,100 to 1000 nM
"CC[C@@]1(c2cccc(-c3ccnn3C)c2)C2=C(CC(C)(C)CC2=O)NC2N=NC(C(F)(F)F)=C21 (some centres undefined) [US20250313563, Compound 947372]",< 100 nM,< 100 nM
"CC[C@]1(c2cc(N(C)C(C)=O)ccc2F)C2=C(CC(C)(C)CC2=O)NC2N=NC(C)=C21 (some centres undefined) [US20250313563, Compound 929451]",> 5000 nM,> 5000 nM
"CN1CC2(C1)C1=C(N=NC1)NC1=C2C(=O)CC(C)(C)C1 [US20250313563, Compound 913264]",< 100 nM,< 100 nM
"CC1(C)CC(=O)C2=C(C1)NC1=C(CN=N1)C21CCOC1 (centres undefined) [US20250313563, Compound 826713]",100 to 1000 nM,100 to 1000 nM
